In patent US9963442B2, “Pyridones as herbicides” (E I DU PONT DE NEMOURS AND COMPANY, priority 2014, dated 2018):

Experiments:
Type in all cases: in vivo
[1] = test system: barnyardgrass (Echinochloa crus-galli); test: Test B flooded paddy test; parameters: key: 0 = no effect, 100 = complete control; conditions: Flood, 250 g ai/ha applied to paddy water at 2-leaf stage; visually evaluated after 13 to 15 days; scale 0 (no effect) to 100 (complete control)
Description: (§1) Plant species in the flooded paddy test selected from rice (Oryza sativa), sedge, umbrella (small-flower umbrella sedge, Cyperus difformis), ducksalad (Heteranthera limosa), and barnyardgrass (Echinochloa crus-galli) were grown to the 2-leaf stage for testing. At time of treatment, test pots were flooded to 3 cm above the soil surface, treated by application of test compounds directly to the paddy water, and then maintained at that water depth for the duration of the test. Treated plants and controls were maintained in a greenhouse for 13 to 15 days, after which time all species were compared to controls and visually evaluated. Plant response ratings, summarized in Table B, are based on a scale of 0 to 100 where 0 is no effect and 100 is complete control. A dash (-) response means no test result.

[2] = test system: sedge, umbrella (small-flower umbrella sedge, Cyperus difformis); test: Test B flooded paddy test; parameters: key: 0 = no effect, 100 = complete control; conditions: Flood, 250 g ai/ha applied to paddy water at 2-leaf stage; visually evaluated after 13 to 15 days; scale 0 (no effect) to 100 (complete control)
Description: as §1

[3] = test system: ducksalad (Heteranthera limosa); test: Test B flooded paddy test; parameters: key: 0 = no effect, 100 = complete control; conditions: Flood, 250 g ai/ha applied to paddy water at 2-leaf stage; visually evaluated after 13 to 15 days; scale 0 (no effect) to 100 (complete control)
Description: as §1

[4] = test system: corn (Zea mays); test: Test A postemergence application; conditions: approx. 10 days
Excerpt: (§2) Seeds of plant species selected from barnyardgrass (Echinochloa crus-galli), kochia (Kochia scoparia), ragweed (common ragweed, Ambrosia elatior), Italian ryegrass (Lolium multiflorum), giant foxtail (Setaria faberii), and pigweed (Amaranthus retroflexus) were planted into a blend of loam soil and sand and treated preemergence with a directed soil spray using test chemicals formulated in a non-phytotoxic solvent mixture which included a surfactant. At the same time, plants selected from these weed species and also wheat (Triticum aestivum), corn (Zea mays), blackgrass (Alopecurus myosuroides), and galium (catchweed bedstraw, Galium aparine) were planted in pots containing the same blend of loam soil and sand and treated with postemergence applications of test chemicals formulated in the same manner. Plants ranged in height from 2 to 10 cm and were in the one- to two-leaf stage for the postemergence treatment. Treated plants and untreated controls were maintained in a greenhouse for approximately 10 days, after which time all treated plants were compared to untreated controls and visually evaluated for injury. Plant response ratings, summarized in Table A, are based on a 0 to 100 scale where 0 is no effect and 100 is complete control. A dash (-) response means no test result.

[5] = test system: wheat (Triticum aestivum); test: Test A postemergence application; conditions: approx. 10 days
Excerpt: as §2

[6] = test system: galium (catchweed bedstraw, Galium aparine); test: Test A postemergence application; conditions: approx. 10 days
Excerpt: as §2

[7] = test system: Italian ryegrass (Lolium multiflorum); test: Test A postemergence application; conditions: approx. 10 days
Excerpt: as §2

[8] = test system: barnyardgrass (Echinochloa crus-galli); test: Test A postemergence application; conditions: approx. 10 days
Excerpt: as §2

[9] = test system: giant foxtail (Setaria faberii); test: Test A postemergence application; conditions: approx. 10 days
Excerpt: as §2

[10] = test system: blackgrass (Alopecurus myosuroides); test: Test A postemergence application; conditions: approx. 10 days
Excerpt: as §2

[11] = test system: pigweed (Amaranthus retroflexus); test: Test A postemergence application; conditions: approx. 10 days
Excerpt: as §2

[12] = test system: ragweed (common ragweed, Ambrosia elatior); test: Test A postemergence application; conditions: approx. 10 days
Excerpt: as §2

[13] = test system: kochia (Kochia scoparia); test: Test A postemergence application; conditions: approx. 10 days
Excerpt: as §2

[14] = test system: soybean (Glycine max); test: Test C postemergence; conditions: scale 0 to 100, 0 is no effect, 100 is complete control
Excerpt: (§3) Seeds of plant species selected from blackgrass (Alopecurus myosuroides), Italian ryegrass (Lolium multiflorum), winter wheat (Triticum aestivum), galium (catchweed bedstraw, Galium aparine), corn (Zea mays), large (Lg) crabgrass (Digitaria sanguinalis), giant foxtail (Setaria faberii), johnsongrass (Sorghum halepense), lambsquarters (Chenopodium album), morningglory (Ipomoea coccinea), yellow nutsedge (Cyperus esculentus), pigweed (Amaranthus retroflexus), ragweed (common ragweed, Ambrosia elatior), soybean (Glycine max), barnyardgrass (Echinochloa crus-galli), oilseed rape (Brassica napus), waterhemp (common waterhemp, Amaranthus rudis), and velvetleaf (Abutilon theophrasti) were planted into a blend of loam soil and sand and treated preemergence with test chemicals formulated in a non-phytotoxic solvent mixture which included a surfactant. At the same time, plants selected from these crop and weed species and also chickweed (common chickweed, Stellaria media), kochia (Kochia scoparia), and wild oat (Avena fatua), were planted in pots containing Sunshine Redi-Earth® planting medium comprising spaghnum peat moss, vermiculite, starter nutrients and dolomitic limestone and treated with postemergence applications of test chemicals formulated in the same manner. Plants ranged in height from 2 to 18 cm (1- to 4-leaf stage) for postemergence treatments. Treated plants and controls were maintained in a greenhouse for 13 to 15 days, after which time all species were compared to controls and visually evaluated. Plant response ratings, summarized in Table C, are based on a scale of 0 to 100 where 0 is no effect and 100 is complete control. A dash (-) response means no test result.

[15] = test system: large (Lg) crabgrass (Digitaria sanguinalis); test: Test C postemergence; conditions: scale 0 to 100, 0 is no effect, 100 is complete control
Excerpt: as §3

[16] = test system: galium (catchweed bedstraw, Galium aparine); test: Test C postemergence; conditions: scale 0 to 100, 0 is no effect, 100 is complete control
Excerpt: as §3

[17] = test system: johnsongrass (Sorghum halepense); test: Test C postemergence; conditions: scale 0 to 100, 0 is no effect, 100 is complete control
Excerpt: as §3

[18] = test system: lambsquarters (Chenopodium album); test: Test C postemergence; conditions: scale 0 to 100, 0 is no effect, 100 is complete control
Excerpt: as §3

[19] = test system: ragweed (common ragweed, Ambrosia elatior); test: Test C postemergence; conditions: scale 0 to 100, 0 is no effect, 100 is complete control
Excerpt: as §3

O=c1cccc(Oc2ncc(Cl)cn2)n1-c1ccc(Cl)cc1 [Compound 1, 1-(4-chlorophenyl)-6-[(5-chloro-2-pyrimidinyl)oxy]-2(1H)-pyridinone]
Plant response rating, Barnyardgrass [1]: 20 | Plant response rating, Sedge, Umbrella [2]: 65 | Plant response rating, Ducksalad [3]: 45 | Plant response rating (0 to 100 scale, 0 no effect, 100 complete control), Corn ([4]; 125 g ai/ha): 30 | Plant response rating (0 to 100 scale, 0 no effect, 100 complete control), Corn ([4]; 500 g ai/ha): 30 | Plant response rating (0 to 100 scale, 0 no effect, 100 complete control), Wheat ([5]; 125 g ai/ha): 30 | Plant response rating (0 to 100 scale, 0 no effect, 100 complete control), Wheat ([5]; 500 g ai/ha): 40 | Plant response rating (0 to 100 scale, 0 no effect, 100 complete control), Galium ([6]; 125 g ai/ha): 50 | Plant response rating (0 to 100 scale, 0 no effect, 100 complete control), Galium ([6]; 500 g ai/ha): 100 | Plant response rating (0 to 100 scale, 0 no effect, 100 complete control), Ryegrass, Italian ([7]; 125 g ai/ha): 0 | Plant response rating (0 to 100 scale, 0 no effect, 100 complete control), Ryegrass, Italian ([7]; 500 g ai/ha): 70 | Plant response rating (0 to 100 scale, 0 no effect, 100 complete control), Barnyardgrass ([8]; 125 g ai/ha): 20 | Plant response rating (0 to 100 scale, 0 no effect, 100 complete control), Barnyardgrass ([8]; 500 g ai/ha): 100 | Plant response rating (0 to 100 scale, 0 no effect, 100 complete control), Foxtail, Giant ([9]; 125 g ai/ha): 70 | Plant response rating (0 to 100 scale, 0 no effect, 100 complete control), Foxtail, Giant ([9]; 500 g ai/ha): 100 | Plant response rating (0 to 100 scale, 0 no effect, 100 complete control), Blackgrass ([10]; 125 g ai/ha): 20 | Plant response rating (0 to 100 scale, 0 no effect, 100 complete control), Blackgrass ([10]; 500 g ai/ha): 90 | Plant response rating (0 to 100 scale, 0 no effect, 100 complete control), Pigweed ([11]; 125 g ai/ha): 100 | Plant response rating (0 to 100 scale, 0 no effect, 100 complete control), Pigweed ([11]; 500 g ai/ha): 100 | Plant response rating (0 to 100 scale, 0 no effect, 100 complete control), Ragweed ([12]; 125 g ai/ha): 20 | Plant response rating (0 to 100 scale, 0 no effect, 100 complete control), Ragweed ([12]; 500 g ai/ha): 20 | Plant response rating (0 to 100 scale, 0 no effect, 100 complete control), Kochia ([13]; 125 g ai/ha): 90 | Plant response rating (0 to 100 scale, 0 no effect, 100 complete control), Kochia ([13]; 500 g ai/ha): 100 | Plant response rating, Soybean ([14]; 16 g ai/ha): 15 | Plant response rating, Soybean ([14]; 31 g ai/ha): 35 | Plant response rating, Soybean ([14]; 62 g ai/ha): 30 | Plant response rating, Soybean ([14]; 125 g ai/ha): 70 | Plant response rating, Crabgrass, Large ([15]; 16 g ai/ha): 10 | Plant response rating, Crabgrass, Large ([15]; 31 g ai/ha): 15 | Plant response rating, Crabgrass, Large ([15]; 62 g ai/ha): 15 | Plant response rating, Crabgrass, Large ([15]; 125 g ai/ha): 20 | Plant response rating, Galium ([16]; 16 g ai/ha): 40 | Plant response rating, Galium ([16]; 31 g ai/ha): 45 | Plant response rating, Galium ([16]; 62 g ai/ha): 80 | Plant response rating, Galium ([16]; 125 g ai/ha): 85 | Plant response rating, Johnsongrass ([17]; 16 g ai/ha): 0 | Plant response rating, Johnsongrass ([17]; 31 g ai/ha): 5 | Plant response rating, Johnsongrass ([17]; 62 g ai/ha): 5 | Plant response rating, Johnsongrass ([17]; 125 g ai/ha): 5 | Plant response rating, Lambsquarters ([18]; 16 g ai/ha): 15 | Plant response rating, Lambsquarters ([18]; 31 g ai/ha): 15 | Plant response rating, Lambsquarters ([18]; 62 g ai/ha): 45 | Plant response rating, Lambsquarters ([18]; 125 g ai/ha): 55 | Plant response rating, Ragweed ([19]; 16 g ai/ha): 10 | Plant response rating, Ragweed ([19]; 31 g ai/ha): 70 | Plant response rating, Ragweed ([19]; 62 g ai/ha): 35 | Plant response rating, Ragweed ([19]; 125 g ai/ha): 40
